Each block holds one molecule with its values, some of them ahead of it. Activity calls are given as the source filed them. No cut-off for these calls is given here.
What was measured:
[1] = target: T1, Dynamin-1 (Homo sapiens) (UniProt Q05193); assay: (§1) Inhibition of GTPase activity of Dynamin 1; set-up: concentration or dose not given beside the values; details: concentration not given here
T1 sequence (whole entry): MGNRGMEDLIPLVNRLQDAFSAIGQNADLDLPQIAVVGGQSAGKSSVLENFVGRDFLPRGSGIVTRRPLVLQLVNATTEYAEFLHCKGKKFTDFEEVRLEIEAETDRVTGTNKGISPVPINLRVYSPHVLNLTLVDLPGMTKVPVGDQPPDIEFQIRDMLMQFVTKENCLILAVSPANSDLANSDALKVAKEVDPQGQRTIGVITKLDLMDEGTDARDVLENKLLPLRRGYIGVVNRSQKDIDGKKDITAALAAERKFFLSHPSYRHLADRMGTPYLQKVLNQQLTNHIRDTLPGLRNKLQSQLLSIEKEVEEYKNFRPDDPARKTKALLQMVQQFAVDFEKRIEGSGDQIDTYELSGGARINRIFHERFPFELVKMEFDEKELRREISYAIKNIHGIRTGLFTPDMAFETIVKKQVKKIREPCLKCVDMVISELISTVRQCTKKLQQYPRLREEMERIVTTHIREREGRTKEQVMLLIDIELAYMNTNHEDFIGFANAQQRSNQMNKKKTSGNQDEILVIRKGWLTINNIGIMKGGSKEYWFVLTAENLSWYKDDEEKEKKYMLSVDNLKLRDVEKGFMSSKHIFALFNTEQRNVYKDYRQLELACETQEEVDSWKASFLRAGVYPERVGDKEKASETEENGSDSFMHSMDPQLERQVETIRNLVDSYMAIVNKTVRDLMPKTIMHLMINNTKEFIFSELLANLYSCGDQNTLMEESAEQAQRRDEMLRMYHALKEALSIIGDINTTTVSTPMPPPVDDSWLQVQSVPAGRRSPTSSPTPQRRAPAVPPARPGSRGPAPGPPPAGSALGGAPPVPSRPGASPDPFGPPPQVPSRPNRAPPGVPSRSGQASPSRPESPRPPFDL

[2] = target: T2, Dynamin-1 (Homo sapiens, UniProt Q05193); assay: as §1
T2 sequence (Q05193 whole entry): T1 sequence (whole entry)

[3] = species: Homo sapiens; assay: Inhibition of GTPase activity of human mitochondrial Drp1 expressed in Escherichia coli BL-21
[4] = tested on: COS-7; assay: Inhibition of transferrin uptake in african green monkey COS7 cells by microscopic TexasRed imaging; assay type: functional, cell-based; details: Chlorocebus aethiops
[5] = tested on: COS-7; assay: Inhibition of dynamin 1 mediated membrane fission in african green monkey Cos7 cells transfected with mRFP-LCa at 10 uM by total internal reflection fluorescence microscopy; assay type: cell-based; details: Chlorocebus aethiops
[6] = tested on: COS-7; assay: Inhibition of transferrin uptake in african green monkey COS7 cells after 30 mins by microscopic TexasRed imaging; assay type: functional, cell-based; details: Chlorocebus aethiops
[7] = Cytotoxicity against african green monkey COS7 cells after 12 hrs; assay type: cell-based; details: chlorocebus aethiops, cos-7, 12 h
[8] = tested on: Cell division control protein 42 homolog; assay: Inhibition of GTPase activity of Cdc42

SMILES: NCCc1ccc(OC(=O)c2ccc3ccccc3c2)cc1
inhibition [1]: 0%

inhibition [1]: 0%
SMILES: O=C(N/N=C/c1ccc(Cl)c(Cl)c1)c1ccc2ccccc2c1

inhibition [1]: 0%
SMILES: Cc1ccc(/C=N/NC(=O)c2ccc3ccccc3c2)cc1C

IC50 [2]: 10.8 µM | inhibition [1]: 69.8% | inhibition [3]: Active
SMILES: O=C(N/N=C/c1ccc(O)c(O)c1)c1cc2ccccc2cc1O [DYNASORE]
IC50 [4]: 15 µM | inhibition [5]: inactive

inhibition [1]: 0%
SMILES: Cc1ccc(/C=N/NC(=O)c2cc3ccccc3cc2O)cc1C

inhibition [1]: 0%
SMILES: O=C(NCCc1ccc(O)cc1)c1ccc2ccccc2c1

SMILES: O=C(OP(=O)(N1CCOC1=O)N1CCOC1=O)c1ccc2ccccc2c1
inhibition [1]: 0% | inhibition [4]: Active

inhibition [1]: 0%
SMILES: O=C(N/N=C/c1ccc(Cl)c(Cl)c1)c1cc2ccccc2cc1O

IC50 [2]: 3.6 µM | inhibition [1]: 74.7% | inhibition [3]: Active | inhibition [8]: inactive
SMILES: COc1ccc(/C=N/NC(=O)c2cc3ccccc3cc2O)cc1O
inhibition [6]: inactive | Activity [7]: Non-toxic | IC50 [4]: 2.6 µM | inhibition [5]: Active

inhibition [1]: 0%
SMILES: O=C(N/N=C/c1cc(O)ccc1[N+](=O)[O-])c1cc2ccccc2cc1O

IC50 [2]: 5.1 µM | inhibition [1]: 73.2% | inhibition [3]: Active | inhibition [8]: inactive
SMILES: O=C(N/N=C/c1ccc(O)c(O)c1)c1ccc2ccccc2c1
inhibition [6]: inactive | Activity [7]: Non-toxic | IC50 [4]: 4 µM | inhibition [5]: Active

Reference: ChEMBL document CHEMBL1208766, “Synthesis of potent chemical inhibitors of dynamin GTPase” (Bioorg Med Chem Lett, 2010)
